Assay results as given in patent publication US20260176283A1, “IONIZABLE LIPIDS WITH LINEAR HEAD GROUPS” (Beam Therapeutics Inc., priority 2023, published 2026).

Legend:
[1] = test system: ALAS1 target site; assay: In vivo base editing with ABE mRNA and sgRNA targeting ALAS1; design: species or system Balb/c mice; details: for Liver Editing A->G (%): 4 days after dosing; for Quadrecept Editing A->G (%): formulation ratio 50:38.5:1.5:10, quadricep muscle
Experimental: (§1) Lipid nanoparticle components are dissolved in 100% ethanol at specified lipid component molar ratios. mRNA encoding an adenine base editor and a chemically-modified sgRNA is dissolved at a mass ratio of 1:1 in 10 mM citrate, 100 mM NaCl, pH 4.0, resulting in a concentration of NA cargo of approximately 0.22 mg/mL. LNP preparations are formulated with molar ratios of either 50% Ionizable Lipid: 38.5% Cholesterol: 1.5% PEG2000-DMG: 10% DSPC or 47.5% Ionizable Lipid: 40% Cholesterol: 2.5% PEG2000-DMG: 10% DSPC both at a total lipid to NA molar ratio of 6.
(§2) LNP preparations are formed by microfluidic mixing of the lipid and NA solutions using a Precision Nanosystems NanoAssemblr Ignite Instrument, according to the manufacturer's protocol. A 3:1 ratio of aqueous to organic solvent is maintained during mixing using differential flow rates. After mixing, LNP preparations are collected, diluted in PBS (approximately 2:1 v/v), and further buffer exchange is conducted using dialysis in PBS at 4° C. for 8 to 24 hours against a 20 kDa filter. After this initial dialysis, each individual LNP preparation is characterized via dynamic light scattering (DLS) to measure size and polydispersity. pKa of a subpopulation of LNP preparations is measured via TNS assay. After dialysis, LNP preparations are sterile filtered using 0.22 micron sterile filter and stored at 4° C. for further use. In some embodiments, LNP preparations may be concentrated using 100 kDa Amicon filters per manufacturer's protocol.
Male Balb/C mice aged approximately 8-12 weeks are used in the experiments described herein. Each mouse is temporarily restrained, and LNP preparations are administered IV via tail vein injection. Age-matched mice are also used to administer vehicle (1×PBS) via tail vein injection as a control. Four to six days post-dose, tissues including liver, spleen, heart and muscle are collected (only liver and muscle (quardracept) are reported). Genomic DNA is isolated and fragmented and adapter-ligated using the Nextera DNA Flex Library Prep Kit (Illumina) using the 96-well plate Nextera indexing primers (Illumina), according to the manufacturer's instructions. Library size and concentration is confirmed by Fragment Analyzer (Agilent) and sent to Novogene for whole genome sequencing using an Illumina HiSeq.
For base editing, mRNA encoding an adenine base editor (ABE) and a guide RNA (sgRNA) targeting ALAS1 at 1:1 (mass ratio) are coencapsulated in LNP preparations as described herein. LNP preparations are administrated into Balb/c mice through tail vein injections at concentrations ranging from 0.05 to 3.0 mg/kg total RNA. At 4 days after dosing, mice are euthanized and liver, spleen and bone barrow are harvested. Base editing is determined by performing targeted deep sequencing analysis at the ALAS1 target site using extracted genomic DNA.

[2] = LNP preparation characterization (encapsulation efficiency, DLS size and polydispersity), barcoded screen LNPs; type: physicochemical; details: LNP 47.5% ionizable lipid: 40% cholesterol: 2.5% PEG-2000 DMG: 10% DPSC, N/P 4.5-6; for AVG PDI / AVG Z Dia (nm): DLS
Experimental: Lipid nanoparticle components were dissolved in 100% ethanol at specified lipid component molar ratios. Nucleic acid (NA) cargo was dissolved in 10 mM citrate, 100 mM NaCl, pH 4.0, resulting in a concentration of NA cargo of approximately 0.22 mg/mL. In some embodiments, NA cargos included both a functional NA and a reporter barcode mixed at mass ratios of 1:10 to 10:1 functional NA to barcode. As described herein, a NA can be a siRNA, an anti-sense, an expressing DNA, or mRNA.
LNP preparations were prepared with 47.5% Ionizable Lipid (e.g., a compound provided herein): 40% cholesterol: 2.5% PEG-2000 DMG: 10% DPSC and an N/P ratio range of 4.5-6. LNP preparations were formed by microfluidic mixing of the lipid and NA solutions using Precision Nanosystems NanoAssemblr Spark or Benchtop series Instruments, according to the manufacturer's protocol.
A ratio of aqueous to organic solvent of approximately 2:1 or 3:1 was maintained during mixing using differential flow rates. After mixing, LNP preparations were collected, diluted in phosphate buffer saline (PBS) or Tris-buffered saline (TBS) (approximately 1:1 v/v). Further buffer exchange was conducted using dialysis in PBS or TBS at 4° C. for 4 to 24 hours against a 20 kDa filter. After this initial dialysis, each individual LNP preparation may be characterized via dynamic light scattering (DLS) to measure the size (e.g., diameter) and polydispersity. LNP preparations falling within specific diameter and polydispersity ranges were pooled, and further dialyzed against PBS or TBS at 4° C. for 1 to 4 hours against a 100 kDa dialysis cassette. After the second dialysis, LNP preparations were sterile filtered using 0.22 μm filter and stored at 4° C. for further use.

[3] = LNP characterization of base editor LNP preparations (DLS diameter, PDI, encapsulation efficiency); type: physicochemical
Experimental: as §1, §2
DLS—LNP preparation hydrodynamic diameter and polydispersity index (PDI) is measured using high throughput dynamic light scattering (DLS) (DynaPro plate reader II, Wyatt). LNP preparations are diluted 1×PBS to an appropriate concentration and analyzed.
Concentration of NA is determined by Qubit microRNA kit (for siRNA) or HS RNA kit (for mRNA) per manufacturer's instructions. Encapsulation efficiency is determined by measuring unlysed and lysed LNPs.

[4] = Table D LNPs, formulation ratio 50:38.5:1.5:10, ABE mRNA/ALAS1 sgRNA
[5] = dose 3 MPK IV, formulation ratio 50:38.5:1.5:10, liver
[6] = dose 0.05 MPK IV, formulation ratio 47.5:40:2.5:10, liver
[7] = Table C LNPs, formulation ratio 47.5:40:2.5:10, ABE mRNA/ALAS1 sgRNA

| SMILES | Liver Editing A->G (%) ([1]; dose 1.5 MPK IV, formulation ratio 50:38.5:1.5:10, liver) | Quadrecept Editing A->G (%) ([1]; dose 1.5 MPK IV) | AVG EE(%) [2] [%] | AVG PDI [2] | AVG Z Dia (nm) [2] [nm] | Diameter (nm) [3, 4] [nm] | EE (%) [3, 4] [%] | PDI (%) [3, 4] [%] | Quadrecept Editing A->G (%) ([1]; dose 3 MPK IV) | Liver Editing A->G (%) [1, 5] [%] | Liver Editing A->G (%) [1, 6] [%] | Diameter (nm) [3, 7] [nm] | EE (%) [3, 7] [%] | PDI (%) [3, 7] [%] |
| --- | --- | --- | --- | --- | --- | --- | --- | --- | --- | --- | --- | --- | --- | --- |
| C=CCCCCC(CCCCC=C)OC(=O)CCCCCC(=O)OCC(COC(=O)CCCCCC(=O)OC(CCCCC=C)CCCCC=C)COC(=O)CCCN1CCCC1 [Compound (2)] | 79.48 | 3.19 | 83.5 | 0.06 | 108.73 | 98.8 | 98.59 | 9.5 |  |  |  |  |  |  |
| C=CCCCC(CCCC=C)OC(=O)CCCCCCC(=O)OCC(COC(=O)CCCCCCC(=O)OC(CCCC=C)CCCC=C)COC(=O)CCCN1CCCC1 [Compound (7), 1-[2-({[8-Oxo-8-(undeca-1,10-dien-6-yloxy)octanoyl]oxy}methyl)-3-{[4-(pyrrolidin-1-yl)butanoyl]oxy}propyl] 8-undeca-1,10-dien-6-yl octanedioate] |  |  | 74.3 |  | 85.54 | 121.2 | 91.02 | 11.8 | 0.87 |  |  |  |  |  |
| C=CCCCCC(CCCCC=C)OC(=O)CCCCCCC(=O)OCC(COC(=O)CCCCCCC(=O)OC(CCCCC=C)CCCCC=C)COC(=O)CCCN1CCCC1 [Compound (6), 1-[2-({[8-Oxo-8-(trideca-1,12-dien-7-yloxy)octanoyl]oxy}methyl)-3-{[4-(pyrrolidin-1-yl)butanoyl]oxy}propyl]-8-trideca-1,12-dien-7-yl octanedioate] |  |  | 78.0 | 0.10 | 97.43 | 73.7 | 98.07 | 15.3 | 1.17 | 78.46 |  |  |  |  |
| CCCCCCCC(CCCCCCC)OC(=O)CCCCCC(=O)OCC(COC(=O)CCCCCC(=O)OC(CCCCCCC)CCCCCCC)COC(=O)CCCN1CCCC1 [Compound (21), O1-[2-[[7-(1-heptyloctoxy)-7-oxo-heptanoyl]oxymethyl]-3-(4-pyrrolidin-1-ylbutanoyloxy)propyl] O7-(1-heptyloctyl) heptanedioate] |  |  | 95.1 | 0.13 | 75.95 |  |  |  |  |  | 0.5 | 62.08 | 98.19 | 6 |
| C=CCCCCCC(CCCCCC=C)OC(=O)CCCCCCC(=O)OCC(COC(=O)CCCCCCC(=O)OC(CCCCCC=C)CCCCCC=C)COC(=O)CCCN1CCCC1 [Compound (10), 1-[2-({[8-Oxo-8-(pentadeca-1,14-dien-8-yloxy)octanoyl]oxy}methyl)-3-{[4-(pyrrolidin-1-yl)butanoyl]oxy}propyl] 8-pentadeca-1,14-dien-8-yl octanedioate] |  |  |  |  |  | 71.6 | 98.66 | 11 | 3.6 | 75.62 |  |  |  |  |
| CC/C=C\CCCC(CCC/C=C\CC)OC(=O)CCCCCC(=O)OCC(COC(=O)CCCCCC(=O)OC(CCC/C=C\CC)CCC/C=C\CC)COC(=O)NCCN1CCCC1 [Compound (28), 1-{2-[({7-oxo-7-[(3Z,12Z)-pentadeca-3,12-dien-8-yloxy]heptanoyl}oxy)methyl]-3-({[2-(pyrrolidin-1-yl)ethyl]carbamoyl}oxy)propyl}7-(3Z,12Z)-pentadeca-3,12-dien-8-ylheptanedioate] |  |  |  |  |  |  |  |  |  |  | 0.65 | 71.15 | 98.71 | 11.8 |
